From US20130096067A1, “DROSOPHILA TUMOR STEM CELL MODEL AND USES THEREOF” (priority 2011, published 2013)
Peptide text beside a SMILES is read from it. * marks the point of attachment. Boc = CC(C)(C)OC(=O)*

Tested on: Raf-1^gof intestinal tumors
Settings: assessed three days later; for Log2 (fold) (luciferase activity, log2 of the fold difference relative to DMSO controls) / Fold (luciferase activity, fold difference relative to DMSO controls): screen of 480 ICCB compounds in vials, compounds fed to flies with one-day old Raf-1^gof tumors, esg-Gal4 luciferase; for Fold (luciferase activity, fold difference relative to DMSO controls) / Fold (luciferase activity relative to DMSO controls): averaged from multiple wells; for Log2 (fold) of luciferase activity relative to DMSO controls / Fold (luciferase activity relative to DMSO controls): ICCB compounds fed in vials to flies with one-day old Raf-1^gof tumors
Also: test concentration or dose not given here.

| Structure (SMILES) | Log2 (fold) (luciferase activity, log2 of the fold difference relative to DMSO controls) | Fold (luciferase activity, fold difference relative to DMSO controls) | Log2 (fold) of luciferase activity relative to DMSO controls | Fold (luciferase activity relative to DMSO controls) |
| --- | --- | --- | --- | --- |
| O=C(O)c1ccccc1Nc1cccc(C(F)(F)F)c1 [FLUFENAMIC ACID] | −0.214 | 0.862 | – | – |
| CC(C)[C@@H]1NC(=O)[C@H](C)OC(=O)[C@@H](C(C)C)NC(=O)[C@@H](C(C)C)OC(=O)[C@H](C(C)C)NC(=O)[C@H](C)OC(=O)[C@@H](C(C)C)NC(=O)[C@@H](C(C)C)OC(=O)[C@H](C(C)C)NC(=O)[C@H](C)OC(=O)[C@@H](C(C)C)NC(=O)[C@@H](C(C)C)OC1=O [valinomycin] | −0.408 | 0.754 | – | – |
| CCCCNc1cc(C(=O)O)cc(S(N)(=O)=O)c1Oc1ccccc1 [bumetanide] | – | – | −0.048 | 0.967 fold |
| Nc1nc2c(nc(Br)n2[C@@H]2O[C@@H]3COP(=O)(O)O[C@H]3[C@H]2O)c(=O)[nH]1 [Bromo-cGMP [8-Bromo-cGMP]] | – | – | 0.021 | 1.015 fold |
| C[C@]12C=CC(=O)C=C1CC[C@@H]1C2=CC[C@]2(C)[C@@H](C(=O)CN3CCN(c4cc(N5CCCC5)nc(N5CCCC5)n4)CC3)CC[C@@H]12.O=C(O)/C=C\C(=O)O [U-74389G] | −0.462 | 0.726 | – | – |
| COc1cc(-c2ccc(=O)[nH]n2)ccc1OC(F)F [zardaverine] | – | – | 0.145 | 1.106 fold |
| C/C(O)=C(\C#N)C(=O)Nc1cc(Br)ccc1Br [LFM-A13] | −0.417 | 0.749 | – | – |
| CCCCCCCCCCCCCCCC(=O)NCCO [PALMITYLETHANOLAMIDE] | −0.486 | 0.714 | – | – |
| C=C1/C(=C\C=C2/CCC[C@]3(C)[C@@H]([C@H](C)CCCC(C)(C)O)CC[C@@H]23)C[C@@H](O)C[C@@H]1O [1,25-DIHYDROXYVITAMIN D3] | – | – | 0.677 | 1.599 fold |
| Cc1c(C(=O)c2cccc3ccccc23)c2cccc3c2n1[C@H](CN1CCOCC1)CO3 [WIN 55,212-2] | −0.305 | 0.810 | – | – |
| O=c1[nH]c2cc(C(F)(F)F)ccc2n1-c1cc(C(F)(F)F)ccc1O [NS-1619] | −0.495 | 0.709 | – | – |
| CCCCCCCCCCCCC/C=C/[C@@H](O)[C@@H](N)CO [SPHINGOSINE] | – | – | −0.030 | 0.980 fold |
| COc1ccc([C@@H]2Sc3ccccc3N(CCN(C)C)C(=O)[C@@H]2OC(C)=O)cc1 [DILTIAZEM] | – | – | −0.205 | 0.868 fold |
| CCCCCCCCCCCCC/C=C/[C@@H](O)[C@H](CO)NC(=O)CCCCCCCCCCCCCCC [C16 CERAMIDE] | −0.496 | 0.709 | – | – |
| CC/C=C\C/C=C\C/C=C\C/C=C\C/C=C\CCCCCC(=O)O [DOCOSAPENTAENOIC ACID] | – | – | −0.161 | 0.895 fold |
| C=C[C@H]1C[N@@]2CC[C@H]1C[C@@H]2[C@@H](O)c1ccnc2ccc(OC)cc12 [QUINIDINE] | −0.351 | 0.784 | – | – |
| CC(C)[C@H](NC(=O)CNC(=O)OC(C)(C)C)C(=O)N[C@H](C=O)C(C)C [Boc-GVV-CHO] (Boc-Gly-Val-Val-aldehyde) | −0.696 | 0.617 | – | – |
| CCCCC/C=C\C/C=C\C/C=C\C=C\[C@@H](O)CCCC(=O)O [5(S)-HETE] | −0.343 | 0.788 | – | – |
| O=C(O)CN1C(=O)c2cccc3cccc(c23)C1=O [Alrestatin] | −0.320 | 0.801 | – | – |
| CC(=O)N[C@@H](CSC/C=C(\C)CCC=C(C)C)C(=O)O [AGC] | −0.508 | 0.703 | – | – |
| NC(=O)c1ccc(-c2nc(-c3ccccn3)c(-c3ccc4c(c3)OCO4)[nH]2)cc1 [SB-431542] | – | – | 0.068 | 1.048 fold |
| CCCC[C@H]1C(=O)O[C@H](C)[C@H](NC(=O)c2cccc(NC=O)c2OC)C(=O)O[C@@H](C)[C@@H]1OC(=O)CC(C)C [2-methoxyantimycin A3] | −0.873 | 0.546 | – | – |
| CCCCCCCC/C=C\C/C=C\C/C=C\CCCC(=O)NCCO [MEAD ETHANOLAMIDE] | −0.322 | 0.800 | – | – |
